The results in this text go back to ChEMBL document CHEMBL1697781, “Assessment of the health effects of chemicals in humans: II. Construction of an adverse effects database for QSAR modeling” (Curr Drug Discov Technol, 2004).
Wherever GGT Increase - Index Value is given: reference of the scale not given here.
Wherever LDH Increase - Index Value is given: reference of the scale not given here.

For one series, the system named is Hepatotoxicity. Put plainly: FDA HLAED, liver enzyme composite activity. Particulars: human.
Consider `CC(c1cc2ccccc2s1)N(O)C(N)=O` (configuration not stated) [ZILEUTON], for which the “Composite Activity - Active” value is reported as 3, the “Composite Activity - Marginal” value is 0 and the “Composite Activity - Score” value is “Active”.
Taken in the same sequence, the figures for `Cc1ccc(-c2nc3ccc(C)cn3c2CC(=O)N(C)C)cc1` [ZOLPIDEM] were 0, 4 and “Marginally Active”.
Consider `Cc1cc(CC(=O)O)n(C)c1C(=O)c1ccc(Cl)cc1` [ZOMEPIRAC], for which the “Composite Activity - Active” value is 0, the “Composite Activity - Marginal” value was found to be 0 and the “Composite Activity - Score” value is “Inactive”.
With NYSTATIN, the “Composite Activity - Active” value came out at 0, the “Composite Activity - Marginal” value is 0 and the “Composite Activity - Score” value is recorded as “Inactive”.

A further series concerns Hepatotoxicity. Put plainly: FDA HLAED, alkaline phosphatase increase. To be noted: human.
Regarding `CC(c1cc2ccccc2s1)N(O)C(N)=O` (configuration not stated) [ZILEUTON], the “Alkaline Phosphatase Increase - Activity Score” value is listed as “Active”, the “Alkaline Phosphatase Increase - Index Value” is given as 29.7 and the “Alkaline Phosphatase Increase - Number of Reports” value is given as “>= 4”.
Taken in the same sequence, the figures for `Cc1ccc(-c2nc3ccc(C)cn3c2CC(=O)N(C)C)cc1` [ZOLPIDEM] were “Marginally Active”, 3 and “>= 4”.
Taken in the same sequence, the figures for `Cc1cc(CC(=O)O)n(C)c1C(=O)c1ccc(Cl)cc1` [ZOMEPIRAC] were “Inactive”, 1.1 and “>= 4”.
Taken in the same sequence, the figures for NYSTATIN were “Inactive”, 0.3 and less than 4.

The subject of another series is Hepatotoxicity. Put plainly: FDA HLAED, serum glutamic oxaloacetic transaminase (SGOT) increase. To be noted: human.
`CC(c1cc2ccccc2s1)N(O)C(N)=O` (configuration not stated) [ZILEUTON]: the “SGOT Increase - Activity Score” value was “Active”, the “SGOT Increase - Index Value” came to 47.5 and the “SGOT Increase - Number of Reports” value was “>= 4”.
The like results for `Cc1ccc(-c2nc3ccc(C)cn3c2CC(=O)N(C)C)cc1` [ZOLPIDEM] were, in that order, “Marginally Active”, 3.8 and “>= 4”.
Taken in the same sequence, the figures for `Cc1cc(CC(=O)O)n(C)c1C(=O)c1ccc(Cl)cc1` [ZOMEPIRAC] were “Inactive”, 1.1 and “>= 4”.
The like results for NYSTATIN were, in that order, “Inactive”, 0 and less than 4.

For a further series, the system named is Hepatotoxicity. Put plainly: FDA HLAED, serum glutamic pyruvic transaminase (SGPT) increase. To be noted: human.
On to `CC(c1cc2ccccc2s1)N(O)C(N)=O` (configuration not stated) [ZILEUTON], for which the “SGPT Increase - Activity Score” value was “Active”, the “SGPT Increase - Index Value” is 65.3 and the “SGPT Increase - Number of Reports” value was “>= 4”.
Taken in the same sequence, the figures for `Cc1ccc(-c2nc3ccc(C)cn3c2CC(=O)N(C)C)cc1` [ZOLPIDEM] were “Marginally Active”, 3.9 and “>= 4”.
With `Cc1cc(CC(=O)O)n(C)c1C(=O)c1ccc(Cl)cc1` [ZOMEPIRAC], the “SGPT Increase - Activity Score” value is “Inactive”, the “SGPT Increase - Index Value” is reported as 0.7 and the “SGPT Increase - Number of Reports” value is reported as “>= 4”.
The like results for NYSTATIN were, in that order, “Inactive”, 0 and less than 4.

The test system of the next series is Hepatotoxicity. Put plainly: FDA HLAED, lactate dehydrogenase (LDH) increase. Particulars: human.
Take `CC(c1cc2ccccc2s1)N(O)C(N)=O` (configuration not stated) [ZILEUTON]: the “LDH Increase - Activity Score” value is “Inactive”, the “LDH Increase - Index Value” worked out at 11.9 and the “LDH Increase - Number of Reports” value was less than 4.
As for `Cc1ccc(-c2nc3ccc(C)cn3c2CC(=O)N(C)C)cc1` [ZOLPIDEM], the “LDH Increase - Activity Score” value is on record as “Inactive”, the “LDH Increase - Index Value” amounted to 0.7 and the “LDH Increase - Number of Reports” value is given as “>= 4”.
The like results for `Cc1cc(CC(=O)O)n(C)c1C(=O)c1ccc(Cl)cc1` [ZOMEPIRAC] were, in that order, “Inactive”, 0.7 and “>= 4”.
Taken in the same sequence, the figures for NYSTATIN were “Inactive”, 0 and less than 4.

A further series has as its system Hepatotoxicity. The experiment in a line: FDA HLAED, gamma-glutamyl transferase (GGT) increase. Particulars: human.
For the molecule `CC(c1cc2ccccc2s1)N(O)C(N)=O` (configuration not stated) [ZILEUTON], the “GGT Increase - Activity Score” value is “Inactive”, the “GGT Increase - Index Value” is 5.9 and the “GGT Increase - Number of Reports” value is on record as less than 4.
The like results for `Cc1ccc(-c2nc3ccc(C)cn3c2CC(=O)N(C)C)cc1` [ZOLPIDEM] were, in that order, “Marginally Active”, 3 and “>= 4”.
The like results for `Cc1cc(CC(=O)O)n(C)c1C(=O)c1ccc(Cl)cc1` [ZOMEPIRAC] were, in that order, “Inactive”, 0 and less than 4.
Taken in the same sequence, the figures for NYSTATIN were “Inactive”, 0 and less than 4.
